Where “and” joins values, the source holds several entries; their conditions need not be identical. Equal entries are not always repeated. Where two headings read alike, the source gives them in different places. Marks after values point to notes of the source that are not given here.
How the values were obtained:
[1] = Thermal stability (TG/DTG): decomposition onset and maximum mass-loss rate temperature
Method: In Figure 5, the thermal stability of ibuprofen and amino acid isopropyl ester ibuprofenates was determined and compared. All TG, DTG, and c-DTA curves are in the Supplementary Materials (Figures S87–S100). The decomposition onset temperature (Tonset) and the temperature of the maximum rate of mass loss (Tmax) were determined.

[2] = In vitro skin permeation, Franz diffusion cells; conditions: for Q%24 h, the percentage of the applied dose permeated after 24 h / Cumulative Permeation Mass / LT, lag time: n = 3; for Q%24 h, the percentage of the applied dose permeated after 24 h / Cumulative Permeation Mass: 24 h; for EF, enhancement factor: relative to IBU; for JSS, steady-state flux: saturated solution in PBS pH 7.4, n = 3
[3] = n-octanol-water partition coefficient, shake flask method; conditions: shake flask, 25 °C
[4] = Solubility in organic solvents by modified Vogel's method; conditions: 25 °C
[5] = Solubility (saturation concentration) in deionised water and PBS pH 7.4, HPLC; conditions: for Solubility in Phosphate Buffer pH = 7.4: PBS pH 7.4, 32 °C; for Solubility in Water: 25 °C
[6] = 24 h penetration, n = 3
[7] = saturated solution in PBS pH 7.4, mass of compound
[8] = saturated solution in PBS pH 7.4, mass of ibuprofen

SMILES | Tonset, the onset temperature of the thermal degradation [1] | Q%24 h, the percentage of the applied dose permeated after 24 h [2] | Cumulative Permeation Mass [2, 7] | Cumulative Permeation Mass [2, 8] | LT, lag time [2] | EF, enhancement factor [2] | JSS, steady-state flux [2] | Log P (n-octanol-water partition coefficient) [3] | Solubility in DMSO [4] | Solubility in chloroform [4] | Solubility in dichloromethane [4] | Solubility in diethyl ether [4] | Solubility in ethanol [4] | Solubility in ethyl acetate [4] | Solubility in n-hexane [4] | Solubility in toluene [4] | Solubility in Phosphate Buffer pH = 7.4 ([5]; g of active compound (IBU)) | Solubility in Phosphate Buffer pH = 7.4 ([5]; g of compound) | Solubility in Water ([5]; g of active compound (IBU)) | Solubility in Water ([5]; g of compound) | other results
CC(C)C[C@H](N)C(=O)OC(C)C.CC(C)Cc1ccc(C(C)C(=O)O)cc1 [[L-LeuOiPr][IBU], L-leucine isopropyl ester ibuprofenate] | 109.5 °C | 11.077 ± 0.236% | 424.683 ± 9.060 ^b µg·cm^−2 | 230.824 ± 4.924 ^b µg IBU·cm^−2 | 1.742 ± 0.061 h | 1.50 | 38.502 ± 1.553 µg IBU cm^−2 h^−1 | 1.391 ± 0.001 | + (soluble >100 mg cm^−3) | + (soluble >100 mg cm^−3) | + (soluble >100 mg cm^−3) | +/− (partially soluble 33–100 mg cm^−3) | + (soluble >100 mg cm^−3) | + (soluble >100 mg cm^−3) | − (insoluble <33 mg cm^−3) | + (soluble >100 mg cm^−3) | 2.084 ± 0.002 g IBU∙dm^−3 | 3.834 ± 0.003 g∙dm^−3 | 0.682 ± 0.038 g IBU∙dm^−3 | 1.255 ± 0.070 g∙dm^−3 | –
CC(C)Cc1ccc(C(C)C(=O)O)cc1.CC(C)OC(=O)[C@@H](N)CO [[L-SerOiPr][IBU], L-serine isopropyl ester ibuprofenate] | – | 11.035 ± 0.500% | – | – | 1.160 ± 0.081 h | 1.49 | 66.106 µg IBU cm^−2 h^−1 and 66.106 ± 2.925 µg IBU cm^−2 h^−1 | 0.775 ± 0.008 | – | – | – | – | – | +/− (partially soluble 33–100 mg cm^−3) | – | − (insoluble <33 mg cm^−3) | – | – | – | – | Tonset, the onset temperature of the thermal degradation ([1]; TG): 139.2 °C; Accumulation in the skin [6]: 407.652 ± 74.170 µg IBU g^−1
CC(C)Cc1ccc(C(C)C(=O)O)cc1.CC(C)OC(=O)[C@@H](N)CS [[L-CysOiPr][IBU], L-cysteine isopropyl ester ibuprofenate] | 190.2 °C | 12.210 ± 1.119% | 541.776 ± 49.664 ^b µg·cm^−2 | 305.756 ± 28.028 ^b µg IBU·cm^−2 | 1.873 ± 0.104 h | 1.65 | 28.858 ± 2.984 µg IBU cm^−2 h^−1 | 1.430 ± 0.005 | + (soluble >100 mg cm^−3) | + (soluble >100 mg cm^−3) | + (soluble >100 mg cm^−3) | – | + (soluble >100 mg cm^−3) | +/− (partially soluble 33–100 mg cm^−3) | − (insoluble <33 mg cm^−3) | – | 2.440 ± 0.287 g IBU∙dm^−3 | 4.437 ± 0.287 g∙dm^−3 | 1.143 ± 0.253 g IBU∙dm^−3 | 2.048 ± 0.253 g∙dm^−3 | –
CC(C)Cc1ccc(C(C)C(=O)O)cc1.CC(C)OC(=O)[C@@H](N)Cc1ccccc1 [[L-PheOiPr][IBU], L-phenylalanine isopropyl ester ibuprofenate] | 175.8 °C | 35.912 ± 0.539% | 711.866 ± 5.956 ^b µg·cm^−2 | 355.088 ± 5.482 ^b µg IBU·cm^−2 | 1.368 ± 0.091 h | 4.85 | 48.578 ± 4.836 µg IBU cm^−2 h^−1 | 2.207 ± 0.026 | + (soluble >100 mg cm^−3) | + (soluble >100 mg cm^−3) | + (soluble >100 mg cm^−3) | +/− (partially soluble 33–100 mg cm^−3) | + (soluble >100 mg cm^−3) | + (soluble >100 mg cm^−3) | − (insoluble <33 mg cm^−3) | + (soluble >100 mg cm^−3) | 1.017 ± 0.001 g IBU∙dm^−3 | 2.039 ± 0.001 g∙dm^−3 | 0.297 ± 0.024 g IBU∙dm^−3 | 0.595 ± 0.048 g∙dm^−3 | KP, times higher than for ibuprofen [2]: 6.839 times
CC(C)Cc1ccc(C(C)C(=O)O)cc1.CC(C)OC(=O)[C@H](C)N [[L-AlaOiPr][IBU], L-alanine isopropyl ester ibuprofenate] | 78.3 °C | 6.786 ± 0.214% | 572.719 ± 18.05 ^b µg·cm^−2 | 350.100 ± 11.039 ^b µg IBU·cm^−2 | 1.691 ± 0.041 h | 0.92 | 44.510 ± 0.861 µg IBU cm^−2 h^−1 | 0.719 ± 0.004 | + (soluble >100 mg cm^−3) | + (soluble >100 mg cm^−3) | + (soluble >100 mg cm^−3) | +/− (partially soluble 33–100 mg cm^−3) | + (soluble >100 mg cm^−3) | + (soluble >100 mg cm^−3) | − (insoluble <33 mg cm^−3) | + (soluble >100 mg cm^−3) | 5.159 ± 0.015 g IBU∙dm^−3 | 8.440 ± 0.024 g∙dm^−3 | 2.463 ± 0.008 g IBU∙dm^−3 | 4.030 ± 0.014 g∙dm^−3 | –
CC(C)Cc1ccc(C(C)C(=O)O)cc1.CC(C)OC(=O)[C@@H](N)[C@@H](C)O [[L-ThrOiPr][IBU], L-threonine isopropyl ester ibuprofenate] | 129.6 °C | 11.294 ± 0.505% | 714.248 ± 38.838 ^b µg·cm^−2 | 400.942 ± 17.921 ^b µg IBU·cm^−2 | 1.339 ± 0.177 h | 1.52 | 59.631 ± 6.900 µg IBU cm^−2 h^−1 | 0.998 ± 0.001 | – | – | – | – | – | – | – | – | – | – | – | – | Accumulation in the skin [6]: 621.866 ± 112.163 µg IBU g^−1
CC(C)Cc1ccc(C(C)C(=O)O)cc1.CC(C)Cc1ccc(C(C)C(=O)O)cc1.CC(C)OC(=O)[C@@H](N)CCCCN [[L-LysOiPr][IBU]2, L-lysine isopropyl ester bis(ibuprofenate)] | – | 10.624 ± 0.474% | 640.825 ± 28.577 ^b µg·cm^−2 | 220.016 ± 9.811 ^b µg IBU·cm^−2 | 1.333 ± 0.258 h | 1.43 | 24.852 ± 2.857 µg IBU cm^−2 h^−1 | – | + (soluble >100 mg cm^−3) | − (insoluble <33 mg cm^−3) | − (insoluble <33 mg cm^−3) | − (insoluble <33 mg cm^−3) | + (soluble >100 mg cm^−3) | − (insoluble <33 mg cm^−3) | − (insoluble <33 mg cm^−3) | − (insoluble <33 mg cm^−3) | 2.071 ± 0.118 g IBU∙dm^−3 | 6.032 ± 0.342 g∙dm^−3 | 2.012 ± 0.110 g IBU∙dm^−3 | 5.861 ± 0.322 g∙dm^−3 | Tonset, the onset temperature of the thermal degradation ([1]; TG): 183.7 °C; Accumulation in the skin [6]: 392.593 ± 111.434 µg IBU g^−1
CC(C)Cc1ccc(C(C)C(=O)O)cc1.CC(C)OC(=O)[C@@H](N)CCCCN [[L-LysOiPr][IBU], L-lysine isopropyl ester ibuprofenate] | – | 11.062 ± 0.475% | 1011.106 ± 43.448 ^b µg·cm^−2 | 528.643 ± 22.716 µg IBU·cm^−2 and 528.643 ± 22.716 ^b µg IBU·cm^−2 | 1.423 ± 0.130 h | 1.49 | 56.801 ± 4.129 µg IBU cm^−2 h^−1 | – | + (soluble >100 mg cm^−3) | − (insoluble <33 mg cm^−3) | − (insoluble <33 mg cm^−3) | − (insoluble <33 mg cm^−3) | + (soluble >100 mg cm^−3) | − (insoluble <33 mg cm^−3) | − (insoluble <33 mg cm^−3) | − (insoluble <33 mg cm^−3) | 4.779 ± 0.061 g IBU∙dm^−3 | 9.140 ± 0.117 g∙dm^−3 | 5.047 ± 0.060 g IBU∙dm^−3 | 9.6534 ± 0.115 g∙dm^−3 | Tonset, the onset temperature of the thermal degradation ([1]; TG): 177.9 °C
